Data: ChEMBL document CHEMBL1201862, “PubChem BioAssay data set” (2004)
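Test compounds were applied to cells in 96-well plates for 48 hours at 5 doses. GI50 is the concentration that inhibits growth by half.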 The source made the active and inactive calls. No stated cut-off is given here; in the data, active = GI50 up to about 1.1 µM and inactive = higher.

Tests used:
Assay in all cases: NCI anticancer screen, dose series, 48 h
A549 = tested on: A549
CAKI-1 = tested on: CAKI-1
DU-145 = tested on: DU-145
HL-60 = tested on: HL-60
HT-29 = tested on: HT-29
M14 = tested on: M14
MCF7 = tested on: MCF7
Malme-3M = tested on: Malme-3M
NCI-H460 = tested on: NCI-H460
OVCAR-3 = tested on: OVCAR-3
PC-3 = tested on: PC-3
SF-268 = tested on: SF-268
SF-539 = tested on: SF-539
SK-MEL-5 = tested on: SK-MEL-5
UACC-257 = tested on: UACC-257
UACC-62 = tested on: UACC-62
UO-31 = tested on: UO-31
OVCAR-4 = tested on: OVCAR-4
SK-MEL-2 = tested on: SK-MEL-2
HCC 2998 = tested on: HCC 2998

Compound: COc1cc([C@@H]2c3cc4c(cc3C[C@@H]3COC(=O)C32)OCO4)cc(OC)c1O (stereo partly drawn)
- GI50 (A549): 0.0668 µM (active)
- GI50 (CAKI-1): 0.0183 µM (active)
- GI50 (DU-145): 0.0973 µM (active)
- GI50 (HL-60): 0.0274 µM (active)
- GI50 (HT-29): 0.034 µM (active)
- GI50 (M14): 0.0344 µM (active)
- GI50 (MCF7): 0.017 µM (active)
- GI50 (Malme-3M): 0.0121 µM (active)
- GI50 (NCI-H460): 0.032 µM (active)
- GI50 (OVCAR-3): 0.0188 µM (active)
- GI50 (PC-3): 0.0234 µM (active)
- GI50 (SF-268): 0.0429 µM (active)
- GI50 (SF-539): 0.0188 µM (active)
- GI50 (SK-MEL-5): 0.0221 µM (active)
- GI50 (UACC-257): 87.7 µM (inactive)
- GI50 (UACC-62): 0.0263 µM (active)
- GI50 (UO-31): 0.0562 µM (active)

Compound: CC(C)C(=O)CP(=O)(O)O
- GI50 (A549): > 100 µM (inactive)
- GI50 (CAKI-1): > 100 µM (inactive)
- GI50 (DU-145): > 100 µM (inactive)
- GI50 (HL-60): > 100 µM (inactive)
- GI50 (HT-29): > 100 µM (inactive)
- GI50 (M14): > 100 µM (inactive)
- GI50 (MCF7): > 100 µM (inactive)
- GI50 (Malme-3M): > 100 µM (inactive)
- GI50 (NCI-H460): > 100 µM (inactive)
- GI50 (OVCAR-3): > 100 µM (inactive)
- GI50 (OVCAR-4): > 100 µM (inactive)
- GI50 (PC-3): > 100 µM (inactive)
- GI50 (SF-268): > 100 µM (inactive)
- GI50 (SF-539): > 100 µM (inactive)
- GI50 (SK-MEL-2): > 100 µM (inactive)
- GI50 (SK-MEL-5): > 100 µM (inactive)
- GI50 (UACC-257): > 100 µM (inactive)
- GI50 (UACC-62): > 100 µM (inactive)

Compound: CC1(C)C(=O)/C=C\C(=O)C(C)(C)C(=O)/C=C\C(=O)C(C)(C)C(=O)/C=C\C(=O)C(C)(C)C(=O)/C=C\C1=O
- GI50 (A549): > 70.8 µM (inactive)
- GI50 (CAKI-1): 12.6 µM (inactive)
- GI50 (DU-145): > 100 µM (inactive)
- GI50 (HL-60): 3 µM (inactive)
- GI50 (HT-29): 17.7 µM (inactive)
- GI50 (M14): 19.4 µM (inactive)
- GI50 (MCF7): 45.9 µM (inactive)
- GI50 (Malme-3M): 17.1 µM (inactive)
- GI50 (NCI-H460): 56.6 µM (inactive)
- GI50 (OVCAR-3): 23.8 µM (inactive)
- GI50 (OVCAR-4): 30.3 µM (inactive)
- GI50 (PC-3): > 100 µM (inactive)
- GI50 (SF-268): > 45.9 µM (inactive)
- GI50 (SF-539): 28 µM (inactive)
- GI50 (SK-MEL-2): 25.2 µM (inactive)
- GI50 (SK-MEL-5): 22.6 µM (inactive)
- GI50 (UACC-257): 23.3 µM (inactive)
- GI50 (UACC-62): 21.9 µM (inactive)
- GI50 (UO-31): 34.8 µM (inactive)

Compound: Cc1ccc2ccc3ccc(C)nc3c2n1 [NEOCUPROINE]
- GI50 (A549): 7.11 µM (inactive)
- GI50 (CAKI-1): > 100 µM (inactive)
- GI50 (DU-145): > 100 µM (inactive)
- GI50 (HCC 2998): 6.38 µM (inactive)
- GI50 (HL-60): 0.353 µM (active)
- GI50 (HT-29): 0.908 µM (active)
- GI50 (M14): > 22.2 µM (inactive)
- GI50 (MCF7): 0.318 µM (active)
- GI50 (Malme-3M): > 100 µM (inactive)
- GI50 (NCI-H460): 2.19 µM (inactive)
- GI50 (OVCAR-3): 0.344 µM (active)
- GI50 (PC-3): 2.1 µM (inactive)
- GI50 (SF-268): > 87.9 µM (inactive)
- GI50 (SF-539): 49.2 µM (inactive)
- GI50 (SK-MEL-2): > 100 µM (inactive)
- GI50 (SK-MEL-5): > 26.2 µM (inactive)
- GI50 (UACC-257): 1.86 µM (inactive)
- GI50 (UACC-62): 3.03 µM (inactive)
- GI50 (UO-31): > 76.2 µM (inactive)

Compound: C=CC(C)(C)/C(=C\CO[Si](C(C)C)(C(C)C)C(C)C)C(=O)N(C)c1ccccc1I
- GI50 (A549): 10.7 µM (inactive)
- GI50 (CAKI-1): 19 µM (inactive)
- GI50 (DU-145): 13.9 µM (inactive)
- GI50 (HCC 2998): 13.2 µM (inactive)
- GI50 (HL-60): 1.73 µM (inactive)
- GI50 (HT-29): 13.4 µM (inactive)
- GI50 (M14): 15.8 µM (inactive)
- GI50 (MCF7): 11.5 µM (inactive)
- GI50 (NCI-H460): 13.6 µM (inactive)
- GI50 (OVCAR-3): 11.6 µM (inactive)
- GI50 (OVCAR-4): 23 µM (inactive)
- GI50 (PC-3): 2.71 µM (inactive)
- GI50 (SF-268): 11.5 µM (inactive)
- GI50 (SF-539): 18 µM (inactive)
- GI50 (SK-MEL-5): 17.7 µM (inactive)
- GI50 (UACC-257): 13.3 µM (inactive)
- GI50 (UACC-62): 13.1 µM (inactive)
- GI50 (UO-31): 12.8 µM (inactive)

Compound: O=C(O)C(Cc1ccc2c(c1)CCC2)(Cc1ccc2c(c1)CCC2)C(=O)O
- GI50 (A549): > 100 µM (inactive)
- GI50 (DU-145): > 100 µM (inactive)
- GI50 (HCC 2998): > 100 µM (inactive)
- GI50 (HL-60): > 100 µM (inactive)
- GI50 (HT-29): > 100 µM (inactive)
- GI50 (M14): > 100 µM (inactive)
- GI50 (MCF7): > 100 µM (inactive)
- GI50 (Malme-3M): > 100 µM (inactive)
- GI50 (NCI-H460): > 100 µM (inactive)
- GI50 (OVCAR-3): > 100 µM (inactive)
- GI50 (OVCAR-4): > 100 µM (inactive)
- GI50 (PC-3): > 100 µM (inactive)
- GI50 (SF-268): > 100 µM (inactive)
- GI50 (SF-539): > 100 µM (inactive)
- GI50 (SK-MEL-2): > 100 µM (inactive)
- GI50 (SK-MEL-5): > 100 µM (inactive)
- GI50 (UACC-257): > 100 µM (inactive)
- GI50 (UACC-62): > 100 µM (inactive)
- GI50 (UO-31): > 100 µM (inactive)

Compound: Cc1ccc2c(c1)C=CC1(O2)N(c2ccccc2)C(=S)OC1(C)C (stereo not drawn)
- GI50 (A549): 67.5 µM (inactive)
- GI50 (CAKI-1): > 100 µM (inactive)
- GI50 (DU-145): > 100 µM (inactive)
- GI50 (HCC 2998): 76.9 µM (inactive)
- GI50 (HL-60): 5.37 µM (inactive)
- GI50 (HT-29): 41.5 µM (inactive)
- GI50 (M14): 43.8 µM (inactive)
- GI50 (MCF7): 21.3 µM (inactive)
- GI50 (NCI-H460): > 100 µM (inactive)
- GI50 (OVCAR-3): 29.6 µM (inactive)
- GI50 (OVCAR-4): 25.8 µM (inactive)
- GI50 (PC-3): 9.27 µM (inactive)
- GI50 (SF-268): 89.5 µM (inactive)
- GI50 (SK-MEL-2): 29 µM (inactive)
- GI50 (SK-MEL-5): 32.1 µM (inactive)
- GI50 (UACC-257): 45.1 µM (inactive)
- GI50 (UACC-62): 40.9 µM (inactive)
- GI50 (UO-31): 28.5 µM (inactive)
